# Measured values published in patent publication US20200138907A1, “Composition for Use in the Treatment of an Individual Suffering a Condition Necessitating New Bone Formation” (priority 2016, published 2020).
# Legend:
# rabbits [1] = experiment: bone induction in intramuscularly implanted BCP constructs without BMP-2, biomembrane pocket model; assay type: in vivo, rabbit; conditions: TNF-α 1, 10, 100 ng, no BMP-2, intramuscular, 12 weeks
# Experimental: First, an assessment study was performed to verify the potential for ectopic bone formation in the biomembrane pocket model. […] The bone volume (area%) in the BCP constructs was the primary outcome after 8 (rats) or 12 (rabbits) weeks. Subsequently, the rabbit model (n=11) was used to 1) screen for the potential of inflammatory stimuli to induce bone intramuscularly and to 2) screen for the effects of inflammatory stimuli on BMP-induced bone formation subcutaneously. The bone volume (area%) in the BCP constructs was the primary outcome after 12 weeks.
# Fibrin glue (Tissucol 500®, Baxter, Deerfield, Ill., USA) was subsequently used (55 μl volume) to load the inflammatory mediators onto the constructs. […]
# After shaving and disinfecting the skin with 10% povidone-iodine, a midline incision was made to expose the paraspinal muscles. […] The incorporation of fluorochromes in the bone was examined by fluorescence microscopy on methyl methacrylate-embedded sections. […]
# After retrieval of the constructs, a quarter of each sample was removed for decalcification and paraffin embedding. […] The samples were completely sectioned and scored for the presence of bone. Two mid-sections were pseudo-coloured in Adobe Photoshop CS6 (Adobe Systems, San Jose, USA) to quantify the percentage of bone in the available pore space (bone area %). […]
# rabbits [2] = experiment: BMP-2 induced bone formation in subcutaneously implanted BCP constructs, biomembrane pocket model; assay type: in vivo, rabbit
# Experimental: For the comparative study (Table 2), inflammatory stimuli were added to the BCP, alone or in combination with BMP-2. Either 1.5 μg of BMP-2 or PBS (15 μl volume) was first applied. Fibrin glue (Tissucol 500®, Baxter, Deerfield, Ill., USA) was subsequently used (55 μl volume) to load the inflammatory mediators onto the constructs. For this purpose, the mediators were resuspended in 27.5 μl of the thrombin component (diluted 1:50 in PBS), then mixed with 27.5 μl of the fibrinogen component (diluted 1:30 in PBS) and immediately pipetted onto the BCP scaffolds. The control samples were treated with fibrin glue alone. The constructs were prepared on the day of surgery and stored in a humidified environment at 37° C. until implantation.
# After shaving and disinfecting the skin with 10% povidone-iodine, a midline incision was made to expose the paraspinal muscles. In the rabbits, four intramuscular pockets were created on each side by blunt dissection for implantation of the PMMA discs (FIG. 2B). The same discs were implanted in subcutaneous pockets via the same approach. Pockets were closed with a non-resorbable suture (Prolene®, Ethicon, USA), followed by closure of the skin (Monocryl®, Ethicon). At the second surgery, an incision was made in the membrane surrounding the PMMA disc, the disc was replaced by a BCP construct, and the opening was sutured (Prolene®, Ethicon). […] Fluorochrome labels were injected subcutaneously to determine the onset and location of new bone formation (van Gaalen et al., 2010): calcein green (10 mg/kg s.c. in 0.2 M NaHCO3, Sigma), oxytetracycline (25 mg/kg s.c. in 50/50 PBS/demineralised water, Merck Millipore, Billerica, USA) xylenol orange (30 mg/kg s.c. in 0.12 M NaHCO3, Sigma). The incorporation of fluorochromes in the bone was examined by fluorescence microscopy on methyl methacrylate-embedded sections. The rabbits were killed 12 weeks after the second surgery under general anesthesia, by intravenous Pentobarbital (Euthanimal®, Alfasan Nederland BV, Woerden, The Netherlands). The rats were killed with CO2, 8 weeks after the second surgery.
# After retrieval of the constructs, a quarter of each sample was removed for decalcification and paraffin embedding. The remaining material was fixed in 4% paraformaldehyde, dehydrated by an ethanol series and embedded in methyl methacrylate (MMA, Merck Millipore).
substance,measurement,setting,value
TNF-α,concentration dependence of bone induction,rabbits [1],no concentration dependence
same,number of constructs with bone formation,rabbits [1],2 constructs
same,bone area %,"rabbits [2]; 10 ng TNF-α with 1.5 μg BMP-2, subcutaneous, 12 weeks, p=0.005 vs control",13.6±9.9 area %
same,4-week fluorochrome label (calcein) incorporation in bone,rabbits [2]; BCP constructs with 1.5 μg BMP-2 and 10 ng TNF-α vs BMP-2 alone,observed less frequently
same,8-week fluorochrome label (xylenol orange) incorporation in bone,"rabbits [2]; BCP constructs with 1.5 μg BMP-2 and 10 ng TNF-α vs BMP-2 alone, gross examination",more abundant
same,effect on BMP-2 induced bone formation (in words),"rabbits [2]; all doses, with 1.5 μg BMP-2, subcutaneous, 12 weeks",stimulatory effect
same,bone formation at a higher concentration of TNF-α,"rabbits [2]; higher than 10 ng TNF-α, with 1.5 μg BMP-2, subcutaneous, 12 weeks",reduction of bone formation
